Earlier results in patent US20090069433A1 (priority 2007, published 2009).

Details: pure capsaicinoid; background statement

## COc1cc(CNC(=O)CCCC/C=C/C(C)C)ccc1O [Capsaicin]
  pungency (Scoville scale): 15,000,000-16,000,000 Scoville units
